Experimental data: US20100286145A1, “ISOPHTHALAMIDE DERIVATIVES INHIBITING BETA-SECRETASE ACTIVITY” (CoMentis, Inc., priority 2007, published 2010)

Tests used:
memapsin 2 = memapsin 2 (Homo sapiens, UniProt P56817); assay: Inhibition of memapsin 2 beta-secretase activity (fluorogenic substrate FS-2); assay type: biochemical; details: memapsin 2, pH 4, 37° C., 20 minutes pre-incubation; read-out: M2Ki
Summary of the method: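 Memapsin 2 pre-incubated 20 min with compound at pH 4, 37° C, then FS-2 substrate (MCA-SEVNLDAEFK-DNP, APP Swedish cleavage site) added. Rate of fluorescence increase compared with uninhibited controls, fitted to a tight-binding inhibition model.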

[1] = tested on: Aβ production in Chinese hamster ovary cells that over-express human APP695 with the London and Swedish mutations; assay: Cellular Aβ IC50 determination (Aβ40 sandwich ELISA); assay type: cell-based; details: Cricetulus griseus; cellular Aβ production; read-out: IC50
Summary of the method: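 CHO cells overexpressing human APP695 with London and Swedish mutations, seeded at 10% confluency, treated with compounds up to about 4 μM final (0.4% DMSO). Secreted Aβ40 measured by sandwich ELISA relative to control and fitted to a 4-parameter IC50 model.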

Chain of memapsin 2 (P56817 46-501): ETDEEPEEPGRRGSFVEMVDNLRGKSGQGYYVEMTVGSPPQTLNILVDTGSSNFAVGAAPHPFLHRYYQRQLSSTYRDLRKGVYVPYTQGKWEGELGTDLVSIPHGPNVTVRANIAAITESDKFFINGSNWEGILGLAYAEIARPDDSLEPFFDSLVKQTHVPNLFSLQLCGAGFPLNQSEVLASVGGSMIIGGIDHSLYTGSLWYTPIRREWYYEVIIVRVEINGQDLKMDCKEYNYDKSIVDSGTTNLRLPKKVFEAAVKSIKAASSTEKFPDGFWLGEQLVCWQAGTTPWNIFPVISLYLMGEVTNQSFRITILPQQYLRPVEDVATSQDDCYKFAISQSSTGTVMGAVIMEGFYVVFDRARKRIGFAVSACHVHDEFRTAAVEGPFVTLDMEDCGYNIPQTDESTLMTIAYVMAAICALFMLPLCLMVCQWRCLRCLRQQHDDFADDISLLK

| Compound | Ki (memapsin 2) | IC50 [1] |
| --- | --- | --- |
| CNc1nc(CNC[C@@H](O)[C@H](Cc2ccccc2)NC(=O)c2cccc(C(=O)N(C)Cc3nc(C)cs3)c2)cc(C(C)C)n1 [Compound 161, N1-((2S,3R)-3-hydroxy-4-((6-isopropyl-2-(methylamino)pyrimidin-4-yl)methylamino)-1-phenylbutan-2-yl)-N3-methyl-N3-((4-methylthiazol-2-yl)methyl)isophthalamide] | < 300 nM | < 1000 nM |
| Cc1csc(CN(C)C(=O)c2cc(C(=O)N[C@@H](Cc3ccccc3)[C@H](O)CNCc3cncc(C(C)C)c3)cc(N(C)C)c2)n1 [Compound 162, 5-(dimethylamino)-N1-((2S,3R)-3-hydroxy-4-((5-isopropylpyridin-3-yl)methylamino)-1-phenylbutan-2-yl)-N3-methyl-N3-((4-methylthiazol-2-yl)methyl)isophthalamide] | < 300 nM | < 1000 nM |
| COc1cccc(C(C)(C)NC[C@@H](O)[C@H](Cc2ccccc2)NC(=O)c2cccc(C(=O)N(C)Cc3nc(C)cs3)c2)c1 [Compound 163, N1-((2S,3R)-3-hydroxy-4-(2-(3-methoxyphenyl)propan-2-ylamino)-1-phenylbutan-2-yl)-N3-methyl-N3-((4-methylthiazol-2-yl)methyl)isophthalamide] | < 300 nM | < 1000 nM |
| Cc1csc(CN(C)C(=O)c2cccc(C(=O)N[C@@H](Cc3ccccc3)[C@H](O)CNCc3cccc(NCc4ccccc4)c3)c2)n1 [Compound 164, N1-((2S,3R)-4-(3-(benzylamino)benzylamino)-3-hydroxy-1-phenylbutan-2-yl)-N3-methyl-N3-((4-methylthiazol-2-yl)methyl)isophthalamide] | < 300 nM | < 1000 nM |
| Cc1csc(CN(C)C(=O)c2cccc(C(=O)N[C@@H](Cc3ccccc3)[C@H](O)CNCc3cc(OS(C)(=O)=O)cc(C(C)C)c3)c2)n1 [Compound 165, 3-(((2R,3S)-2-hydroxy-3-(3-(methyl((4-methylthiazol-2-yl)methyl)carbamoyl)benzamido)-4-phenylbutylamino)methyl)-5-isopropylphenyl methanesulfonate] | < 300 nM | < 1000 nM |
| COc1cccc(NC[C@@H](O)[C@H](Cc2ccccc2)NC(=O)c2cccc(C(=O)N(C)Cc3nc(C)cs3)c2)c1 [Compound 166, N1-((2S,3R)-3-hydroxy-4-(3-methoxyphenylamino)-1-phenylbutan-2-yl)-N3-methyl-N3-((4-methylthiazol-2-yl)methyl)isophthalamide] | > 501 nM | > 5000 nM |
| CNc1cccc(CNC[C@@H](O)[C@H](Cc2ccccc2)NC(=O)c2cccc(C(=O)N(C)Cc3nc(C)cs3)c2)c1 [Compound 167, N1-((2S,3R)-3-hydroxy-4-(3-(methylamino)benzylamino)-1-phenylbutan-2-yl)-N3-methyl-N3-((4-methylthiazol-2-yl)methyl)isophthalamide] | < 300 nM | < 1000 nM |
| C=C(C)c1cccc(CNC[C@@H](O)[C@H](Cc2ccccc2)NC(=O)c2cccc(C(=O)N(C)Cc3nc(C)cs3)c2)c1 [Compound 168, N1-((2S,3R)-3-hydroxy-1-phenyl-4-(3-(prop-1-en-2-yl)benzylamino)butan-2-yl)-N3-methyl-N3-((4-methylthiazol-2-yl)methyl)isophthalamide] | < 300 nM | < 1000 nM |

The next lines start with the values.

| Ki (memapsin 2) | IC50 [1] | Compound |
| --- | --- | --- |
| < 300 nM | < 1000 nM | C[C@@H](NC(=O)c1cc(C(=O)N[C@@H](Cc2ccccc2)[C@H](O)CNCc2cccc(C(C)(F)F)c2)cc(N(C)S(C)(=O)=O)c1)c1ccccc1 [Compound 144, N1-((2S,3R)-4-(3-(1,1-difluoroethyl)benzylamino)-3-hydroxy-1-phenylbutan-2-yl)-5-(N-methylmethylsulfonamido)-N3-((R)-1-phenylethyl)isophthalamide] |
| < 300 nM | < 1000 nM | Cc1csc(CN(C)C(=O)c2cccc(C(=O)N[C@@H](Cc3ccccc3)[C@H](O)CNCc3cccc(C(C)(F)F)c3)c2)n1 [Compound 145, N1-((2S,3R)-4-(3-(1,1-difluoroethyl)benzylamino)-3-hydroxy-1-phenylbutan-2-yl)-N3-methyl-N3-((4-methylthiazol-2-yl)methyl)isophthalamide] |
| < 300 nM | < 1000 nM | Cc1csc(CN(C)C(=O)c2cccc(C(=O)N[C@@H](Cc3ccccc3)[C@H](O)CNCc3cc(C(C)C)cc(N(C)S(C)(=O)=O)c3)c2)n1 [Compound 146, N1-((2S,3R)-3-hydroxy-4-(3-isopropyl-5-(N-methylmethylsulfonamido)benzylamino)-1-phenylbutan-2-yl)-N3-methyl-N3-((4-methylthiazol-2-yl)methyl)isophthalamide] |
| < 300 nM | < 1000 nM | Cc1csc(CN(C)C(=O)c2cccc(C(=O)N[C@@H](Cc3ccccc3)[C@H](O)CNC(C)c3cncc(C(C)C)c3)c2)n1 (stereo partly drawn) [Compound 148, N1-((2S,3R)-3-hydroxy-4-(1-(5-isopropylpyridin-3-yl)ethylamino)-1-phenylbutan-2-yl)-N3-methyl-N3-((4-methylthiazol-2-yl)methyl)isophthalamide] |
| < 300 nM | < 1000 nM | C[C@@H](NC(=O)c1cc(C(=O)N[C@@H](Cc2ccccc2)[C@H](O)CNCc2cccc(C#N)c2)cc(N(C)S(C)(=O)=O)c1)c1ccccc1 [Compound 149, N1-((2S,3R)-4-(3-cyanobenzylamino)-3-hydroxy-1-phenylbutan-2-yl)-5-(N-methylmethylsulfonamido)-N3-((R)-1-phenylethyl)isophthalamide] |
| < 300 nM | < 1000 nM | Cc1csc(CN(C)C(=O)c2cccc(C(=O)N[C@@H](Cc3ccccc3)[C@H](O)CNCc3cc(C(C)C)cc(S(C)(=O)=O)c3)c2)n1 [Compound 150, N1-((2S,3R)-3-hydroxy-4-(3-isopropyl-5-(methylsulfonyl)benzylamino)-1-phenylbutan-2-yl)-N3-methyl-N3-((4-methylthiazol-2-yl)methyl)isophthalamide] |
| < 300 nM | < 1000 nM | Cc1csc(CN(C)C(=O)c2cc(C(=O)N[C@@H](Cc3ccccc3)[C@H](O)CNCc3cncc(C(C)C)c3)cc(-c3ccccc3C#N)c2)n1 [Compound 154, 2′-cyano-N3-((2S,3R)-3-hydroxy-4-((5-isopropylpyridin-3-yl)methylamino)-1-phenylbutan-2-yl)-N5-methyl-N5-((4-methylthiazol-2-yl)methyl)biphenyl-3,5-dicarboxamide] |
| < 300 nM | < 1000 nM | Cc1csc(CN(C)C(=O)c2cccc(C(=O)N[C@@H](Cc3ccccc3)[C@H](O)CNCc3cc(C(C)C)nc(N)n3)c2)n1 [Compound 155, N1-((2S,3R)-4-((2-amino-6-isopropylpyrimidin-4-yl)methylamino)-3-hydroxy-1-phenylbutan-2-yl)-N3-methyl-N3-((4-methylthiazol-2-yl)methyl)isophthalamide] |
| < 300 nM | < 1000 nM | Cc1csc(CN(C)C(=O)c2cccc(C(=O)N[C@@H](Cc3ccccc3)[C@H](O)CNCc3cncc(Br)c3)c2)n1 [Compound 158, N1-((2S,3R)-4-((5-bromopyridin-3-yl)methylamino)-3-hydroxy-1-phenylbutan-2-yl)-N3-methyl-N3-((4-methylthiazol-2-yl)methyl)isophthalamide] |
